# From patent US6447794B2, “Stomach-action molluscicides” (priority 1996, dated 2002)
# What was measured:
# Deroceras reticulatum [1] = conditions: on wet soil after 10 days; cited from earlier work
# Helix apersa = assay: preliminary trials, contact poison on a smooth glass surface; format: in vivo, Helix aspersa
# Description: (§1) Subsequent trials compared the effective toxicity of methiocarb, metaldehyde bait pellets and ferric EDTA pellets and ferric EDTA bait powder to Helix aspersa and the effective toxicity of ferric EDTA to Deroceras reticulatum. Limited trials were carried out on Theba pisana (the white Italian snail), Cernuella virgata (the vineyard snail), Limax maximus and Cochlicella spp.
# Deroceras reticulatum [2] = assay: as above; format: in vivo
# Description: as §1
Compound,toxicity relative to Iron(III) EDTA (Deroceras reticulatum [1]),toxicity as a contact poison (Helix apersa),toxicity as a contact poison (Deroceras reticulatum [2])
"CC(=O)/C=C(/C)[O-].CC(=O)/C=C(/C)[O-].CC(=O)/C=C(/C)[O-].[Fe+3] [Iron(III) 2,4-pentanedionate]",about twice to three times as toxic,,
"O=C([O-])CN(CCN(CC(=O)[O-])CC(=O)[O-])CC(=O)[O-].[Fe+3].[Na+] [ferric EDTA, Ferric sodium EDTA]",,toxic,toxic
